Experimental data reported in patent publication US20200199523A1, “MEDIA FOR MICROORGANISM CULTURE AND RELATED COMPOSITIONS AND METHODS” (Massachusetts Institute of Technology, priority 2017, published 2020).

Assays:
wildtype Pichia pastoris = assay: Batch cultivation growth (optical density, growth rate) in microtiter plates and shake flasks; type: cell-based, Komagataella phaffii; settings: for Effect of supplement on growth rate: nutrient screening in defined media; for Growth rate μ in supplemented defined media: nutrient screening, supplement added to defined media; for Effect on growth rate of reducing the element's concentration by 50%: basal salts medium (FIG. 2A)
Procedure: Batch cultivations were conducted at two scales: microtiter plates and shake flasks. Microtiter plates with 24 wells and pyramidal bottoms were purchased from Axygen. Each well had 10 mL total volume and cultivations used a 3 mL working volume. Plates were incubated in a Liconic LPX44 shaker at 600 rpm. Temperature was not controlled but remained at room temperature, between 21 and 24° C. […] The shake rate was set to 300 rpm and the temperature was controlled at 25° C. […]
All chemicals used in media formulations were purchased from Sigma. Complex media was purchased from Teknova. […] Glycerol was added at a starting concentration of 1% by volume. Media was autoclaved and filtered through a […] bottletop filter before use. PTM1 salts were added after filtration to avoid loss of trace elements through precipitation.
Biomass was measured by optical density. Shake flask samples were measured on a Genesys 10 Bio spectrophotometer. Microtiter plate samples were measured using a Tecan Infinite M200 Pro plate reader and converted to the same scale as the spectrophotometer samples using a calibration curve. Growth rates were calculated by linear regression between the natural logarithm of the optical density and the cultivation time in hours. The regression was run on time points during the exponential growth phase unless otherwise specified.

[1] = system: P. pastoris strains expressing hGH, G-CSF, IFN; assay: Amino acid supplementation of defined media: recombinant protein expression (GXII, SDS-PAGE, ELISA); type: cell-based; settings: alone or with other amino acids, IFN (FIG. 10-13)
Procedure: Here, a study is presented of the impact of adding specific amino acids on recombinant protein titers. To uncover a general formulation, three P. pastoris strains were studied, each expressing a different heterologous protein.
Expression of three recombinant proteins, hGH, G-CSF, and IFN, by P. pastoris grown in media with different individual amino acids, 12.5 mM each. Protein concentrations measured by GXII, samples taken 24 hours after methanol induction (FIG. 10).
(FIG. 11). hGH expression by P. pastoris grown in media with different combinations of amino acids, each 12.5 mM total, based on initial individual amino acid screenings is shown. hGH concentrations were measured by GXII, samples taken 24 hours after methanol induction.
In FIG. 12, the effect of Asparagine, Glutamine, and Arginine on protein expression is examined. The starred media conditions are as follows; Glutamine, Arginine, Glutamine+Arginine (RDM), Asparagine, Glutamine+Asparagine, and all 20 amino acids. In all media conditions, total amino acid concentration is normalized to 25 mM.
hGH production was measured in media containing individual or combinations of amino acids. The total concentration in (mM) of amino acids was 12.5, 25, or 50 mM. The results were measured by ELISA, and each value is the average of three technical replicates.

[2] = system: P. pastoris gene expression; assay: RNA-Seq gene expression and ssGSEA at stages of perfusion cultivation; type: cell-based, K. phaffii
Procedure: To study gene expression under perfusion, seven cultivations were conducted (FIG. 14B). The production medium contained 1.5% v/v methanol. For four of the bioreactors (labeled 1, 3, 5A, 6A), the cultures were induced immediately after the DO spike. For the other three reactors (labeled 4, 5, 6), glycerol feed was maintained after the DO spike for 4 hours and then the cultures were induced with methanol. There were no significant differences between the biomass, hGH titers, or transcriptomic data between the two conditions (FIG. 15), so they were treated as biological replicates for RNA-Seq analysis.
RNA was isolated from samples taken at six time points during the cultivation (FIG. 14B). Samples were taken from all reactors after one day of exponential growth on glycerol (G1) and immediately after the DO spike (G2). […]
RNA was extracted using the Qiagen RNeasy kit (cat. no. 74104). […] All libraries were sequenced on the Illumina NextSeq platform to generate 75-nucleotide paired-end reads at a read depth of at least 3 million reads per sample. The reads were aligned to the previously reported genome sequence for this strain (Love et al., 2016) using RSEM version 1.2.15 with bowtie2 version 2.2.3. The reads were also aligned to the sequence for hGH using BWA (version 0.7.12). […]

[3] = system: K. phaffii strain modified to express human growth hormone (hGH); assay: Perfusion cultivation: biomass (wet cell weight), hGH titer, productivity; type: cell-based
Procedure: Experiments were conducted using a K. phaffii strain modified to express human growth hormone (hGH) under the control of the AOX1 promoter. For biomass accumulation, cells were grown in medium containing per liter: 40 mL glycerol, 12 g KH2PO4, 4.7 g MgSO4.7H2O, 0.36 g CaCl2.2H2O, 4.96 g (NH4)2SO4, 1.46 g L-glutamine, 1.74 g L-arginine, 3.3 mL of vitamin solution, 10 mL of lipids solution, and 4.35 mL of PTM1 salts (Amresco J241). For protein production, cells were grown in medium containing per liter: 12 g KH2PO4, 4.7 g MgSO4.7H2O, 0.36 g CaCl2.2H2O, 13.21 g (NH4)2SO4, 2.92 g L-glutamine, 3.3 mL of vitamin solution, 10 mL of lipids solution, and 4.35 mL of PTM1 salts (Amresco J241). Both media were adjusted to pH 6.5 using 5M KOH. The vitamin solution consisted of per liter: 7.5 g myo-inositol, 0.3 g thiamine HCl, 0.3 g calcium pantothenate, 0.3 g nicotinic acid, 0.3 g pyroxidine HCl, 0.015 g biotin, and 0.06 g para-aminobenzoic acid. The lipids solution consisted of per liter: 2 mg arachidonic acid, 10 mg linoleic acid, 10 mg linolenic acid, 10 mg myristic acid, 10 mg oleic acid, 10 mg palmitic acid, 10 mg stearic acid, 2.2 g Tween-80, 70 mg tocopherol acetate, and 100 g of Pluronic F-68. All chemicals were purchased from Sigma. The medium was filtered before use.
Cultivations were conducted in 0.5 L Infors HT bioreactors adapted for operation in perfusion mode. Cultures were inoculated directly from a frozen cell stock into 0.44 L of medium. Cells were grown for approximately 32 hours in perfusion mode with medium containing glycerol fed at a rate of 0.5 mL/minute. […] The cultures were induced by switching the feed to production medium containing methanol, which was also fed at 0.5 mL/minute. Bioreactor temperature was automatically controlled at 25° C. The pH was controlled at 6.5 using 5M KOH.
For the studies of higher methanol feed rate, two cultivations were conducted. The production medium contained 15% v/v methanol. All other fermentation conditions were as described above.
Biomass was measured by wet cell weight. Five hundred microliters of sample were spun in a Costar Spin-X centrifuge filter tube for 10 minutes at 1500 g and the pellet was weighed. hGH concentrations in the supernatants were quantified by RPLC and by gel electrophoresis (Perkin Elmer GXII). Concentrations estimated by the two methods were highly consistent (slope=0.98, R^2=0.95).
Cell-specific productivity was calculated according to the following system of equations (Amos Lu, unpublished): […]
where qp is the cell-specific productivity, μ is the growth rate, F is the perfusion rate, X is the biomass concentration, and P is the protein titer.

[4] = perfusion, 15% v/v vs 1.5% v/v methanol

C[C@H](N)C(=O)O [Alanine]
Effect of supplement on growth rate (wildtype Pichia pastoris): did not
Growth rate μ in supplemented defined media (wildtype Pichia pastoris): 0.195 h⁻¹

NC(=O)C[C@H](N)C(=O)O [asparagine]
Effect on protein production [1]: increases protein production

phosphate
Effect on growth rate of reducing the element's concentration by 50% (wildtype Pichia pastoris): no significant effect

CO [methanol]
Increase in expression of genes involved in methanol metabolism vs glycerol ([2]; first 4 hours after induction): 35 fold
Increase in expression of genes involved in methanol metabolism vs glycerol ([2]; later in methanol feeding): 100 fold
Cell-specific productivity relative to low-feed case ([3]; beginning of the cultivation (FIG. 23C)): double
Biomass concentration ([3]; perfusion, 15% v/v methanol, day 6 of production): 530 g/L WCW
hGH titer ([3]; perfusion, 15% v/v methanol, end of the cultivation): 2 g/L
Cell density relative to low-methanol feeding experiments [3, 4]: over four times greater
hGH titers relative to lower methanol feed rate [3, 4]: over six times higher
Average growth rate ([3]; perfusion, methanol feed rate increased by a factor of ten (15% v/v)): 0.01 h⁻¹
Volumetric productivity relative to lower methanol feed ([3]; perfusion, on average (FIG. 23D)): 3-4 times

NC(=O)CC[C@H](N)C(=O)O [Glutamine]
Effect on protein production [1]: increases protein production
Growth rate μ in supplemented defined media (wildtype Pichia pastoris): 0.217 h⁻¹

OC[C@H]1O[C@H](O[C@H]2O[C@H](CO)[C@@H](O)[C@H](O)[C@H]2O)[C@H](O)[C@@H](O)[C@@H]1O [Trehalose]
Growth rate μ in supplemented defined media (wildtype Pichia pastoris): 0.193 h⁻¹

N=C(N)NCCC[C@H](N)C(=O)O [Arginine]
Effect on protein production [1]: increases protein production
Effect of supplement on growth rate (wildtype Pichia pastoris): significant benefit
Growth rate μ in supplemented defined media (wildtype Pichia pastoris): 0.202 h⁻¹

NCCCC[C@H](N)C(=O)O [Lysine]
Effect of supplement on growth rate (wildtype Pichia pastoris): did not
Growth rate μ in supplemented defined media (wildtype Pichia pastoris): 0.196 h⁻¹

N [ammonium]
Effect on growth rate of reducing the element's concentration by 50% (wildtype Pichia pastoris): significantly improved the growth rate
Concentration at which it became limiting for growth (wildtype Pichia pastoris; basal salts medium (FIG. 2B)): 12.5 mM

CC(O)C(=O)O (stereo not shown) [Lactate]
Growth rate μ in supplemented defined media (wildtype Pichia pastoris): 0.186 h⁻¹

S1SSSSSSS1 [sulfur]
Effect on growth rate of reducing the element's concentration by 50% (wildtype Pichia pastoris): no significant effect
